Experimental data reported in the supplement of paper PMC9663587.

What was measured:
Torin2 = compound: C1=CC(=CC(=C1)N2C(=O)C=CC3=CN=C4C=CC(=CC4=C32)C5=CN=C(C=C5)N)C(F)(F)F [Torin2]
AZD1775 = compound: C=CCn1c(=O)c2cnc(Nc3ccc(N4CCN(C)CC4)cc3)nc2n1-c1cccc(C(C)(C)O)n1 [AZD1775]
[1] = compound: CC(=O)Nc1cccc(-n2c(=O)n(C3CC3)c(=O)c3c(Nc4ccc(I)cc4F)n(C)c(=O)c(C)c32)c1
[2] = compound: CC(=O)c1c(C)c2cnc(Nc3ccc(N4CCNCC4)cn3)nc2n(C2CCCC2)c1=O
Ipatasertib/GDC0068 = compound: CC(C)NC[C@@H](C(=O)N1CCN(c2ncnc3c2[C@H](C)C[C@H]3O)CC1)c1ccc(Cl)cc1 [Ipatasertib/GDC0068]
BVD523 = compound: CC(C)Nc1cc(-c2c[nH]c(C(=O)N[C@H](CO)c3cccc(Cl)c3)c2)c(Cl)cn1 [BVD523]
SHP099 = compound: CC1(CCN(CC1)C2=CN=C(C(=N2)N)C3=C(C(=CC=C3)Cl)Cl)N [SHP099]
TGX221 = compound: CC1=CN2C(=O)C=C(N=C2C(=C1)C(C)NC3=CC=CC=C3)N4CCOCC4 [TGX221]
[3] = compound: CCC1=CN=CN=C1N2CCN(CC2)CC3=NC4=C(N3)C=C(C=C4)C(F)(F)F
[4] = compound: CCCCOc1c(C(=O)c2c(F)cc(C)cc2F)c[nH]c2nncc1-2
Luminespib/NVP-AUY922 = compound: CCNC(=O)c1noc(-c2cc(C(C)C)c(O)cc2O)c1-c1ccc(CN2CCOCC2)cc1 [Luminespib/NVP-AUY922]
[5] = compound: CCc1cnn2c(NCc3ccc[n+]([O-])c3)cc(N3CCCC[C@H]3CCO)nc12
THZ-P1-2 = compound: CN(C)C/C=C/C(=O)NC1=CC=C(C=C1)C(=O)NC2=CC=CC(=C2)NC3=NC=NC(=C3)C4=CNC5=CC=CC=C54 [THZ-P1-2]
THZ1 = compound: CN(C)C/C=C/C(=O)Nc1ccc(C(=O)Nc2cccc(Nc3ncc(Cl)c(-c4c[nH]c5ccccc45)n3)c2)cc1 [THZ1]
BSJ-01-175 = compound: CN(C)C/C=C/C(=O)Nc1ccc(O[C@@H]2CCC[C@@H](Nc3ncc(Cl)c(-c4c[nH]c5ccccc45)n3)C2)cc1 [BSJ-01-175]
senexin b = compound: CN1CCN(C(=O)c2ccc3cc(CCNc4ncnc5ccc(C#N)cc45)ccc3c2)CC1 [senexin b]
Saracatinib/AZD0530 = compound: CN1CCN(CCOc2cc(OC3CCOCC3)c3c(Nc4c(Cl)ccc5c4OCO5)ncnc3c2)CC1 [Saracatinib/AZD0530]
Flavopiridol = compound: CN1CC[C@H](c2c(O)cc(O)c3c(=O)cc(-c4ccccc4Cl)oc23)[C@H](O)C1 [Flavopiridol]
Rucaparib = compound: CNCc1ccc(-c2[nH]c3cc(F)cc4c3c2CCNC4=O)cc1 [Rucaparib]
[6] = compound: CNc1nc(-c2ccc3c(N)n[nH]c3c2)cc(N2C[C@@H](C(=O)NC3CCCCC3)CC[C@H]2C)n1
[7] = compound: CO[C@@H](C)Cn1c(=O)n(C)c2cnc3ccc(-c4cncc(C(C)(C)O)c4)cc3c21
Cediranib/AZD2171 = compound: COc1cc2c(Oc3ccc4[nH]c(C)cc4c3F)ncnc2cc1OCCCN1CCCC1 [Cediranib/AZD2171]
Cabozantinib = compound: COc1cc2nccc(Oc3ccc(NC(=O)C4(C(=O)Nc5ccc(F)cc5)CC4)cc3)c2cc1OC [Cabozantinib]
Doxorubicin = compound: COc1cccc2c1C(=O)c1c(O)c3c(c(O)c1C2=O)C[C@@](O)(C(=O)CO)C[C@@H]3O[C@H]1C[C@H](N)[C@H](O)[C@H](C)O1 [Doxorubicin]
Alpelisib/BYL719 = compound: Cc1nc(NC(=O)N2CCC[C@H]2C(N)=O)sc1-c1ccnc(C(C)(C)C(F)(F)F)c1 [Alpelisib/BYL719]
Dasatinib = compound: Cc1nc(Nc2ncc(C(=O)Nc3c(C)cccc3Cl)s2)cc(N2CCN(CCO)CC2)n1 [Dasatinib]
[8] = compound: Cc1nn(C)c(COc2ccc(N3CCN(S(=O)(=O)N(C)C)CC3)cc2)c1-c1cccc2c(CCCOc3cccc4ccccc34)c(C(=O)O)n(CCN3CCOCC3)c12
AZD7762 = compound: NC(=O)Nc1cc(-c2cccc(F)c2)sc1C(=O)N[C@H]1CCCNC1 [AZD7762]
AZD5363 = compound: NC1(C(=O)N[C@@H](CCO)c2ccc(Cl)cc2)CCN(c2nc[nH]c3nccc2-3)CC1 [AZD5363]
Buparlisib/NVP-BKM120 = compound: Nc1cc(C(F)(F)F)c(-c2cc(N3CCOCC3)nc(N3CCOCC3)n2)cn1 [Buparlisib/NVP-BKM120]
Vorinostat = compound: O=C(CCCCCCC(=O)Nc1ccccc1)NO [Vorinostat]
Olaparib/AZD2281 = compound: O=C(c1cc(Cc2n[nH]c(=O)c3ccccc23)ccc1F)N1CCN(C(=O)C2CC2)CC1 [Olaparib/AZD2281]
R0-3306 = compound: C1=CC2=C(C=CC(=C2)C=C3C(=O)NC(=NCC4=CC=CS4)S3)N=C1 [R0-3306]
AZD2014 = compound: CNC(=O)c1cccc(-c2ccc3c(N4CCOC[C@@H]4C)nc(N4CCOC[C@@H]4C)nc3n2)c1 [AZD2014]
AZD6738 = compound: C[C@@H]1COCCN1c1cc(C2([S@](C)(=N)=O)CC2)nc(-c2cc[nH]c3nccc2-3)n1 [AZD6738]
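Note: breast cancer and non-malignant breast epithelial cell lines, Deep Dye Drop or Dye Drop imaging, nine half-log doses, GR normalized to time-zero plates and DMSO-only controls.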

Row | Cell Line | GR50, 72 h (Torin2) | GR50, 72 h (AZD1775) | GR50, 72 h [1] | GR50, 72 h [2] | GR50, 72 h (Ipatasertib/GDC0068) | GR50, 72 h (BVD523) | GR50, 72 h (SHP099) | GR50, 72 h (TGX221) | GR50, 72 h [3] | GR50, 72 h [4] | GR50, 72 h (Luminespib/NVP-AUY922) | GR50, 72 h [5] | GR50, 72 h (THZ-P1-2) | GR50, 72 h (THZ1) | GR50, 72 h (BSJ-01-175) | GR50, 72 h (senexin b) | GR50, 72 h (Saracatinib/AZD0530) | GR50, 72 h (Flavopiridol) | GR50, 72 h (Rucaparib) | GR50, 72 h [6] | GR50, 72 h [7] | GR50, 72 h (Cediranib/AZD2171) | GR50, 72 h (Cabozantinib) | GR50, 72 h (Doxorubicin) | GR50, 72 h (Alpelisib/BYL719) | GR50, 72 h (Dasatinib) | GR50, 72 h [8] | GR50, 72 h (AZD7762) | GR50, 72 h (AZD5363) | GR50, 72 h (Buparlisib/NVP-BKM120) | GR50, 72 h (Vorinostat) | GR50, 72 h (Olaparib/AZD2281) | GR50, 72 h (R0-3306) | GR50, 72 h (AZD2014) | GR50, 72 h (AZD6738)
1 | PDX1328 | 0.00494 µM | 0.00554 µM | > 1 µM | 0.168 µM | > 10 µM | > 10 µM | > 10 µM | > 10 µM | > 10 µM | > 10 µM | 0.00288 µM | 0.0148 µM | > 10 µM | 0.0106 µM | 0.00722 µM | > 10 µM | 0.987 µM | 0.181 µM | > 10 µM | > 10 µM | 0.00195 µM | 4.04 µM | 6.29 µM | 0.024 µM | 1.57 µM | 0.0279 µM | > 10 µM | 0.0284 µM | > 10 µM | 0.528 µM | 0.687 µM | > 10 µM |  |  | 
2 | SUM149 | 0.142 µM | 0.0722 µM | 0.0112 µM |  | 4.56 µM | 1.96 µM | > 10 µM | > 10 µM | > 10 µM | 0.0163 µM | 0.00516 µM | 0.0134 µM | 6.14 µM | 0.0493 µM | 0.0356 µM | > 10 µM | 2.49 µM | 0.196 µM | > 10 µM | > 10 µM | 1.55 µM | 5.18 µM | 5.87 µM | 0.00797 µM | > 10 µM | 0.0931 µM | 5.97 µM | 0.0774 µM | 6.67 µM | 1.45 µM | 1.37 µM | 3.87 µM | 4.86 µM | 1.92 µM | 3.87 µM
3 | MCF10A (GM) |  | 5.15 µM |  |  |  | 1.51 µM | > 10 µM |  |  | 0.355 µM |  |  | 7.51 µM | 0.0449 µM | 1.17 µM | > 10 µM |  | 0.101 µM | > 10 µM | > 10 µM | 0.00578 µM |  |  |  |  |  |  |  | > 10 µM |  |  |  | 6.32 µM | 0.034 µM | 6.85 µM
4 | BT474 | 0.00998 µM | 0.621 µM | > 1 µM | > 3.16 µM | 0.521 µM | > 10 µM | > 10 µM | > 10 µM | > 10 µM | > 10 µM | 0.00444 µM | 0.0162 µM | 5.82 µM | 0.0129 µM | 0.0747 µM | 5.65 µM | 0.896 µM | 0.208 µM | > 10 µM | 1.3 µM | < 0.001 µM | > 10 µM | > 10 µM | 0.0267 µM | 0.309 µM | 0.0392 µM | > 10 µM | 2 µM |  | 0.281 µM | 2.71 µM | > 10 µM | 3.53 µM | < 0.001 µM | 7.93 µM
